Data as given in patent US11477967B2, “Microfluidic device, system and methods thereof for measuring and recording electrical signals from a pool of multiple nematodes” (NemaMetrix Inc., priority 2018, dated 2022).

Legend:
Assay type in all cases: in vivo, C. elegans
[1] = test system: pool of multiple nematodes; experiment: composite EPG from a pool of multiple nematodes, microfluidic device 500 / system 600, Solution A versus Solution B; settings: same pool of nematodes; Solution A normal M9 buffer 16 min, Solution B serotonin M9 buffer 25 min; FIG. 7C
Excerpt: To obtain nematodes of a consistent size that were compatible with the dimensions of the recording channel 515, we used the method of Example 2. Alternative methods using filters can also be used to obtain an age/size synchronized population of nematodes for use. See US Patent Publ. No. 2019/0090458.
To prepare nematodes for recording, we used the method of Example 2, except that the final resuspension used “normal M9 buffer solution,” defined in Table 3.
For filling the microfluidic device, we used the method of Example 2, except that the syringe and tubing were filled with “normal M9 buffer solution.”
At the end of this recording, the normal M9 buffer solution was replaced with Solution B, serotonin M9 buffer solution disclosed in Example 1, without dislodging the original pool of nematodes. Replacement was accomplished by exchanging the syringe and tubing filled with normal M9 buffer solution for a syringe and tubing filled with serotonin M9 buffer solution. […]
The center frequency of this peak is within the expected range of pharyngeal pumping frequency. […] However, as the same population of nematodes was recorded under conditions of the two different buffer solutions in FIG. 7C, but not in FIG. 4C, FIG. 7C establishes, in addition, that the system 600 can be used to measure the effect of drugs or other test compounds on pharyngeal pumping. […]

nematodes = experiment: single-nematode EPG recordings (ScreenChip System) and synthetic composite EPG summed from them
Method: (§1) To obtain nematodes of a consistent size that were compatible with the dimensions of the recording channel 120, we utilized a common procedure to obtain a large number of age synchronized eggs. Eggs were deposited in a culture plate containing food and cultivated at 20 C for 3 days, yielding a large population of young adult nematodes.
To prepare nematodes for recording, 2 mL of “normal M9 buffer solution,” defined in Table 3, was added to a culture plate containing young adult nematodes grown from synchronized eggs. The plate was swirled to lift nematodes into the solution and the contents were poured into a 2 mL Eppendorf tube. Nematodes were cleaned of adherent bacteria and debris by 5 cleaning cycles each of which involved pelleting nematodes in a centrifuge (1.2 g, 30 sec), drawing off the supernatant, and resuspending in M9 buffer. […]
According to circuit theory, (i) the waveform of a composite EPG recorded at electrodes 135 and 145 should be the sum of the voltage differences generated by each nematode at its unique location and orientation with respect to the electrodes and other nematodes, and (ii) the peak frequency of the waveform's power spectrum should represent the average pumping frequency of the population of nematodes between the electrodes. […]

[2] = test system: pool of multiple nematodes; experiment: composite EPG from a pool of multiple nematodes, microfluidic device 100 / system 200; settings: approximately 25 nematodes between electrodes, serotonin M9 buffer solution (10 mM serotonin); peak absent in normal M9 buffer; FIG. 4C
Method: as §1
To prepare nematodes for recording, 2 mL of “normal M9 buffer solution,” defined in Table 3, was added to a culture plate containing young adult nematodes grown from synchronized eggs. The plate was swirled to lift nematodes into the solution and the contents were poured into a 2 mL Eppendorf tube. Nematodes were cleaned of adherent bacteria and debris by 5 cleaning cycles each of which involved pelleting nematodes in a centrifuge (1.2 g, 30 sec), drawing off the supernatant, and resuspending in M9 buffer. To stimulate pharyngeal pumping, the final resuspension used “serotonin M9 buffer solution” which contained 10 mM serotonin in addition to the constituents in Table 3. […]
Two lines of evidence indicate that the recorded activity represents pharyngeal pumping.

**Q.** For NCCc1c[nH]c2ccc(O)cc12 [serotonin], which “center frequency of peak of difference trace between power spectra of Solution B and Solution A” value [1] is on record?
**A.** 5 Hz

**Q.** What about the average pumping frequency (nematodes; 22 nematodes, single-nematode EPGs in serotonin M9 buffer solution (10 mM serotonin), 10-14 min, ± SEM) of the same compound?
**A.** 4.9±0.13 Hz

**Q.** And the “peak frequency of power spectrum of synthetic (in silico) composite EPG recording” value (nematodes; sum of all 22 single-nematode EPG measurements in serotonin M9 buffer solution (10 mM serotonin), FIG. 3E)?
**A.** 5.1 Hz

**Q.** And the “peak of power spectrum of composite EPG” value [2]?
**A.** 5.6 Hz
